From ChEMBL document CHEMBL1201862, “PubChem BioAssay data set” (2004)
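Assay format: 96-well plates, 48-hour exposure. Abbreviation: GI50, concentration required for 50% inhibition of growth.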 Calls of active or inactive are those of the source. Rule as the data show it: active = GI50 up to about 1.1 µM and inactive = higher.

Legend:
Assay in all cases: NCI-60 cell line screen, 48 h
[1] = system: K562
[2] = system: CAKI-1
[3] = system: NCI-H226
[4] = system: NCI-H522
[5] = system: OVCAR-3
[6] = system: KM12
[7] = system: Malme-3M
[8] = system: 786-0
[9] = system: CCRF-CEM
[10] = system: SK-MEL-5
[11] = system: EKVX
[12] = system: SK-MEL-2
[13] = system: MDA-N
[14] = system: SW-620
[15] = system: UACC-62
[16] = system: SR
[17] = system: SN12C
[18] = system: HT-29
[19] = system: COLO 205
[20] = system: ACHN
[21] = system: HCT-15
[22] = system: SF-268
[23] = system: U-251
[24] = system: A549
[25] = system: BT-549
[26] = system: SNB-75
[27] = system: HOP-62
[28] = system: OVCAR-4
[29] = system: UACC-257
[30] = system: M14
[31] = system: TK-10
[32] = system: IGROV-1
[33] = system: NCI/ADR-RES
[34] = system: PC-3
[35] = system: MDA-MB-231
[36] = system: UO-31
[37] = system: MOLT-4
[38] = system: T47D
[39] = system: SF-539
[40] = system: RXF 393
[41] = system: OVCAR-8
[42] = system: A498
[43] = system: SNB-19
[44] = system: HCC 2998
[45] = system: HCT-116
[46] = system: HL-60
[47] = system: SK-OV-3
[48] = system: SK-MEL-28
[49] = system: NCI-H460
[50] = system: RPMI-8226
[51] = system: SF-295
[52] = system: OVCAR-5
[53] = system: MCF7
[54] = system: DU-145
[55] = system: Hs-578T
[56] = system: NCI-H23
[57] = system: LOX IMVI
[58] = system: MDA-MB-435

## O=C(O)c1cc(/N=N/c2ccc([As](=O)(O)O)cc2)ccc1O
[1]
  GI50: > 100 µM (inactive)
[2]
  GI50: > 100 µM (inactive)
[3]
  GI50: > 100 µM (inactive)
[4]
  GI50: > 100 µM (inactive)
[5]
  GI50: > 100 µM (inactive)
[6]
  GI50: > 100 µM (inactive)
[7]
  GI50: > 100 µM (inactive)
[8]
  GI50: > 100 µM (inactive)
[9]
  GI50: > 100 µM (inactive)
[10]
  GI50: > 100 µM (inactive)
[11]
  GI50: > 100 µM (inactive)
[12]
  GI50: > 100 µM (inactive)
[13]
  GI50: > 100 µM (inactive)
[14]
  GI50: > 100 µM (inactive)
[15]
  GI50: > 100 µM (inactive)
[16]
  GI50: > 100 µM (inactive)
[17]
  GI50: > 100 µM (inactive)
[18]
  GI50: > 100 µM (inactive)
[19]
  GI50: > 100 µM (inactive)
[20]
  GI50: > 100 µM (inactive)
[21]
  GI50: > 100 µM
[22]
  GI50: > 100 µM (inactive)
[23]
  GI50: > 100 µM (inactive)
[24]
  GI50: > 100 µM (inactive)
[25]
  GI50: > 100 µM (inactive)
[26]
  GI50: > 100 µM (inactive)
[27]
  GI50: > 100 µM (inactive)
[28]
  GI50: > 100 µM (inactive)
[29]
  GI50: > 100 µM (inactive)
[30]
  GI50: > 100 µM (inactive)
[31]
  GI50: > 100 µM (inactive)
[32]
  GI50: > 100 µM (inactive)
[33]
  GI50: > 100 µM (inactive)
[34]
  GI50: > 100 µM (inactive)
[35]
  GI50: > 100 µM (inactive)
[36]
  GI50: > 100 µM (inactive)
[37]
  GI50: > 100 µM (inactive)
[38]
  GI50: > 100 µM (inactive)
[39]
  GI50: > 100 µM (inactive)
[40]
  GI50: > 100 µM (inactive)
[41]
  GI50: > 100 µM (inactive)
[42]
  GI50: > 100 µM (inactive)
[43]
  GI50: > 100 µM (inactive)
[44]
  GI50: > 100 µM (inactive)
[45]
  GI50: > 100 µM (inactive)
[46]
  GI50: > 100 µM (inactive)
[47]
  GI50: > 100 µM (inactive)
[48]
  GI50: > 100 µM (inactive)
[49]
  GI50: > 100 µM (inactive)
[50]
  GI50: > 100 µM (inactive)
[51]
  GI50: > 100 µM (inactive)
[52]
  GI50: > 100 µM (inactive)
[53]
  GI50: > 100 µM (inactive)
[54]
  GI50: > 100 µM (inactive)
[55]
  GI50: > 100 µM (inactive)
[56]
  GI50: > 100 µM (inactive)
[57]
  GI50: > 100 µM (inactive)
[58]
  GI50: > 100 µM (inactive)

## O=C(NNC(=O)c1cc2ccccc2[nH]1)c1cc2ccccc2[nH]1
[1]
  GI50: 80 µM (inactive)
[2]
  GI50: > 100 µM (inactive)
[3]
  GI50: > 100 µM (inactive)
[4]
  GI50: > 100 µM (inactive)
[5]
  GI50: > 100 µM (inactive)
[6]
  GI50: > 100 µM (inactive)
[7]
  GI50: > 100 µM (inactive)
[8]
  GI50: > 100 µM (inactive)
[9]
  GI50: > 100 µM (inactive)
[10]
  GI50: > 100 µM (inactive)
[11]
  GI50: > 100 µM (inactive)
[12]
  GI50: > 100 µM (inactive)
[13]
  GI50: > 100 µM (inactive)
[14]
  GI50: > 100 µM (inactive)
[15]
  GI50: > 100 µM (inactive)
[16]
  GI50: 66.5 µM (inactive)
[17]
  GI50: > 100 µM (inactive)
[18]
  GI50: > 100 µM (inactive)
[19]
  GI50: > 100 µM (inactive)
[21]
  GI50: > 100 µM
[22]
  GI50: > 100 µM (inactive)
[23]
  GI50: > 100 µM (inactive)
[24]
  GI50: > 100 µM (inactive)
[25]
  GI50: > 100 µM (inactive)
[26]
  GI50: > 100 µM (inactive)
[27]
  GI50: > 100 µM (inactive)
[28]
  GI50: > 100 µM (inactive)
[29]
  GI50: > 100 µM (inactive)
[30]
  GI50: > 100 µM (inactive)
[31]
  GI50: > 100 µM (inactive)
[32]
  GI50: > 100 µM (inactive)
[33]
  GI50: > 100 µM (inactive)
[34]
  GI50: > 100 µM (inactive)
[35]
  GI50: > 100 µM (inactive)
[36]
  GI50: > 100 µM (inactive)
[37]
  GI50: > 100 µM (inactive)
[38]
  GI50: > 100 µM (inactive)
[39]
  GI50: > 100 µM (inactive)
[40]
  GI50: > 100 µM (inactive)
[41]
  GI50: > 100 µM (inactive)
[42]
  GI50: > 100 µM (inactive)
[43]
  GI50: > 100 µM (inactive)
[45]
  GI50: > 100 µM (inactive)
[46]
  GI50: 95.7 µM (inactive)
[47]
  GI50: > 100 µM (inactive)
[48]
  GI50: > 100 µM (inactive)
[49]
  GI50: > 100 µM (inactive)
[50]
  GI50: > 100 µM (inactive)
[51]
  GI50: > 100 µM (inactive)
[52]
  GI50: > 100 µM (inactive)
[53]
  GI50: > 100 µM (inactive)
[54]
  GI50: > 100 µM (inactive)
[55]
  GI50: > 100 µM (inactive)
[57]
  GI50: > 100 µM (inactive)
[58]
  GI50: > 100 µM (inactive)
